Assays:
HeLa = experiment: Proliferation assay (crystal violet), HeLa; assay type: cell-based; conditions: Homo sapiens, HeLa, 96 h, HeLa cells; 4 days incubation; crystal violet staining; read-out: IC50 inhibition of proliferation, HeLa
How it was run: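 Crystal violet proliferation readout, 4-day compound incubation, 0.001–10 μM, final DMSO 0.5%. Zero-point plate stained at time of dosing set as 0%, untreated control as 100%; IC50 via 4-parameter fit.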

[1] = system: human cervical tumor cell line HeLa (ATCC CCL-2); experiment: SAC-Formation - Nocodazole-Induced Assay; assay type: cell-based; conditions: Homo sapiens, HeLa, 24 h, HeLa cells, nocodazole 0.1 μg/ml together with test compound, decrease of mitotic cells (phospho-histone H3 Ser10)
How it was run: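 Loss of phospho-histone H3 Ser10-positive cells, counted against Hoechst-stained nuclei by high-content imaging, marked mitotic breakthrough. Compounds (0.005–20 μM, 0.5% DMSO) were co-dosed with 0.1 μg/ml nocodazole onto HeLa cells for 24 h at 37 °C. Curves were fitted with a four-parameter Hill equation.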

Compound	IC50 (HeLa)	IC50 [1]
CCN1CCC(COc2ccc(NC(=O)c3c(C)nsc3Nc3cnc(C(F)(F)F)cn3)cn2)C(F)(F)C1 (stereo not drawn) [Example 393, N-{6-[(1-ethyl-3,3-difluoropiperidin-4-yl)methoxy]pyridin-3-yl}-3-methyl-5-{[5-(trifluoromethyl)pyrazin-2-yl]amino}-1,2-thiazole-4-carboxamide]	430 nM	14 nM
Cc1nsc(Nc2cnc(C(F)(F)F)cn2)c1C(=O)Nc1ccc(F)c(OC[C@H]2CCN(CC(F)F)C2)c1 [Example 397, N-(3-{[(3S)-1-(2,2-difluoroethyl)pyrrolidin-3-yl]methoxy}-4-fluorophenyl)-3-methyl-5-{[5-(trifluoromethyl)pyrazin-2-yl]amino}-1,2-thiazole-4-carboxamide]	830 nM	31 nM
Cc1nsc(Nc2cnc(C(F)(F)F)cn2)c1C(=O)Nc1ccc(F)c(OC[C@@H]2CCCN(CC(F)(F)F)C2)c1 [Example 342, N-(4-fluoro-3-{[(3R)-1-(2,2,2-trifluoroethyl)piperidin-3-yl]methoxy}phenyl)-3-methyl-5-{[5-(trifluoromethyl)pyrazin-2-yl]amino}-1,2-thiazole-4-carboxamide]	470 nM	72 nM
Cc1nsc(Nc2cnc(C(F)(F)F)cn2)c1C(=O)Nc1ccc(OCC2CCN(CCC(F)(F)F)CC2)nc1 [Example 347, 3-methyl-5-{[5-(trifluoromethyl)pyrazin-2-yl]amino}-N-(6-{[1-(3,3,3-trifluoropropyl)piperidin-4-yl]methoxy}pyridin-3-yl)-1,2-thiazole-4-carboxamide]	390 nM	40 nM
Cc1nsc(Nc2cnc(C(F)(F)F)cn2)c1C(=O)Nc1ccc(OCC2CCCN(CC(F)F)C2)nc1 (stereo not drawn) [Example 327, N-(6-{[1-(2,2-difluoroethyl)piperidin-3-yl]methoxy}pyridin-3-yl)-3-methyl-5-{[5-(trifluoromethyl)pyrazin-2-yl]amino}-1,2-thiazole-4-carboxamide]	370 nM	6.3 nM
Cc1nsc(Nc2cnc(C(F)(F)F)cn2)c1C(=O)Nc1ccc(O[C@H]2CCN(CC(F)F)C[C@@H]2F)nc1 [Example 362]	340 nM	2.3 nM
Cc1nsc(Nc2cnc(C(F)(F)F)cn2)c1C(=O)Nc1ccc(OCCCN(C)CC(F)(F)F)nc1 [Example 354, 3-methyl-N-(6-{3-[methyl(2,2,2-trifluoroethyl)amino]propoxy}pyridin-3-yl)-5-{[5-(trifluoromethyl)pyrazin-2-yl]amino}-1,2-thiazole-4-carboxamide]	330 nM	110 nM
Cc1nsc(Nc2cnc(C(F)(F)F)cn2)c1C(=O)Nc1ccc(N2CCN(CC(F)(F)F)CC2)nc1 [Example 360, 3-methyl-N-{6-[4-(2,2,2-trifluoroethyl)piperazin-1-yl]pyridin-3-yl}-5-{[5-(trifluoromethyl)pyrazin-2-yl]amino}-1,2-thiazole-4-carboxamide]	350 nM	36 nM
Cc1nsc(Nc2cnc(C(F)(F)F)cn2)c1C(=O)Nc1ccc(OC[C@@H]2CCCN(CC(F)(F)F)C2)nc1 [Example 376, 3-methyl-N-(6-{[(3R)-1-(2,2,2-trifluoroethyl)piperidin-3-yl]methoxy}pyridin-3-yl)-5-{[5-(trifluoromethyl)pyrazin-2-yl]amino}-1,2-thiazole-4-carboxamide]	310 nM	50 nM
Cc1nsc(Nc2cnc(C(F)(F)F)cn2)c1C(=O)Nc1ccc(F)c(OC[C@@H]2CCN(CC(F)(F)F)C2)c1 [Example 339, N-(4-fluoro-3-{[(3R)-1-(2,2,2-trifluoroethyl)pyrrolidin-3-yl]methoxy}phenyl)-3-methyl-5-{[5-(trifluoromethyl)pyrazin-2-yl]amino}-1,2-thiazole-4-carboxamide]	380 nM	40 nM
Cc1nsc(Nc2cnc(C(F)(F)F)cn2)c1C(=O)Nc1ccc(O[C@H]2CCN(CC(F)F)C2)nc1 [Example 382, N-(6-{[(3S)-1-(2,2-difluoroethyl)pyrrolidin-3-yl]oxy}pyridin-3-yl)-3-methyl-5-{[5-(trifluoromethyl)pyrazin-2-yl]amino}-1,2-thiazole-4-carboxamide]	180 nM	24 nM
Cc1nsc(Nc2cnc(C(F)(F)F)cn2)c1C(=O)Nc1ccc(OCC2CCCN(CCC(F)(F)F)C2)nc1 (stereo not drawn) [Example 328, 3-methyl-5-{[5-(trifluoromethyl)pyrazin-2-yl]amino}-N-(6-{[1-(3,3,3-trifluoropropyl)piperidin-3-yl]methoxy}pyridin-3-yl)-1,2-thiazole-4-carboxamide]	360 nM	1.8 nM
Cc1nsc(Nc2cnc(C(F)(F)F)cn2)c1C(=O)Nc1ccc(OC[C@@H]2CCCN(CCC(F)(F)F)C2)nc1 [Example 377, 3-methyl-5-{[5-(trifluoromethyl)pyrazin-2-yl]amino}-N-(6-{[(3R)-1-(3,3,3-trifluoropropyl)piperidin-3-yl]methoxy}pyridin-3-yl)-1,2-thiazole-4-carboxamide]	370 nM	40 nM

Continued by falling IC50 (HeLa), values first:

IC50 (HeLa)	IC50 [1]	Compound
1500 nM	120 nM	Cc1nsc(Nc2cnc(C(F)(F)F)cn2)c1C(=O)Nc1ccc(N2CCN(CC(F)F)CC2)cn1 [Example 372, N-{5-[4-(2,2-difluoroethyl)piperazin-1-yl]pyridin-2-yl}-3-methyl-5-{[5-(trifluoromethyl)pyrazin-2-yl]amino}-1,2-thiazole-4-carboxamide]
620 nM	34 nM	Cc1nsc(Nc2cnc(C(F)(F)F)cn2)c1C(=O)Nc1ccc(O[C@@H]2CCN(CC(F)F)C2)nc1 [Example 379, N-(6-{[(3R)-1-(2,2-difluoroethyl)pyrrolidin-3-yl]oxy}pyridin-3-yl)-3-methyl-5-{[5-(trifluoromethyl)pyrazin-2-yl]amino}-1,2-thiazole-4-carboxamide]
480 nM	35 nM	Cc1nsc(Nc2cnc(C(F)(F)F)cn2)c1C(=O)Nc1ccc(F)c(OC[C@@H]2CCCN(CCC(F)(F)F)C2)c1 [Example 395, N-(4-fluoro-3-{[(3R)-1-(3,3,3-trifluoropropyl)piperidin-3-yl]methoxy}phenyl)-3-methyl-5-{[5-(trifluoromethyl)pyrazin-2-yl]amino}-1,2-thiazole-4-carboxamide]
410 nM	34 nM	CCN1CC[C@H](Oc2ccc(NC(=O)c3c(C)nsc3Nc3cnc(C(F)(F)F)cn3)cn2)[C@@H](F)C1 [Example 365, N-(6-{[(3S,4S)-1-ethyl-3-fluoropiperidin-4-yl]oxy}pyridin-3-yl)-3-methyl-5-{[5-(trifluoromethyl)pyrazin-2-yl]amino}-1,2-thiazole-4-carboxamide]
400 nM	70 nM	Cc1nsc(Nc2cnc(C(F)(F)F)cn2)c1C(=O)Nc1ccc(O[C@@H]2CCCN(CCC(F)(F)F)C2)nc1 [Example 387, 3-methyl-5-{[5-(trifluoromethyl)pyrazin-2-yl]amino}-N-(6-{[(3R)-1-(3,3,3-trifluoropropyl)piperidin-3-yl]oxy}pyridin-3-yl)-1,2-thiazole-4-carboxamide]
380 nM	68 nM	Cc1nsc(Nc2cnc(C(F)(F)F)cn2)c1C(=O)Nc1ccc(N2CCN(CCC(F)(F)F)CC2)nc1 [Example 361, 3-methyl-5-{[5-(trifluoromethyl)pyrazin-2-yl]amino}-N-{6-[4-(3,3,3-trifluoropropyl)piperazin-1-yl]pyridin-3-yl}-1,2-thiazole-4-carboxamide]
350 nM	98 nM	Cc1nsc(Nc2cnc(C(F)(F)F)cn2)c1C(=O)Nc1ccc(OCCN(C)CCC(F)(F)F)nc1 [Example 351, 3-methyl-N-(6-{2-[methyl(3,3,3-trifluoropropyl)amino]ethoxy}pyridin-3-yl)-5-{[5-(trifluoromethyl)pyrazin-2-yl]amino}-1,2-thiazole-4-carboxamide]
340 nM	620 nM	Cc1nsc(Nc2ccc(C#N)cn2)c1C(=O)Nc1ccc(OC2CCN(CC(F)(F)F)CC2)nc1 [Example 30, 5-[(5-Cyanopyridin-2-yl)amino]-3-methyl-N-(6-{[1-(2,2,2-trifluoroethyl)piperidin-4-yl]oxy}pyridin-3-yl)-1,2-thiazole-4-carboxamide]
330 nM	150 nM	Cc1nsc(Nc2cnc(C(F)(F)F)cn2)c1C(=O)Nc1ccc(OCCCN(C)CCC(F)(F)F)nc1 [Example 355, 3-methyl-N-(6-{3-[methyl(3,3,3-trifluoropropyl)amino]propoxy}pyridin-3-yl)-5-{[5-(trifluoromethyl)pyrazin-2-yl]amino}-1,2-thiazole-4-carboxamide]
290 nM	12 nM	Cc1nsc(Nc2cnc(C(F)(F)F)cn2)c1C(=O)Nc1ccc(O[C@H]2CCN(CCC(F)(F)F)C[C@@H]2F)nc1 [Example 364, N-(6-{[(3S,4S)-3-fluoro-1-(3,3,3-trifluoropropyl)piperidin-4-yl]oxy}pyridin-3-yl)-3-methyl-5-{[5-(trifluoromethyl)pyrazin-2-yl]amino}-1,2-thiazole-4-carboxamide]
260 nM	6.2 nM	Cc1nsc(Nc2cnc(C(F)(F)F)cn2)c1C(=O)Nc1ccc(OC2CCCN(CC(F)(F)F)C2)nc1 (stereo not drawn) [Example 331, 3-methyl-N-(6-{[1-(2,2,2-trifluoroethyl)piperidin-3-yl]oxy}pyridin-3-yl)-5-{[5-(trifluoromethyl)pyrazin-2-yl]amino}-1,2-thiazole-4-carboxamide]
